Data published in PubChem BioAssay (NCI).
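In this assay, cells in 96-well plates receive the compound at five concentrations for 48 hours. Endpoints are linearly interpolated between the surrounding concentrations. The concentration for 50% growth inhibition is given as GI50. Definition used: TGI = concentration required for complete inhibition of growth.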

Key:
Test in all cases: NCI-60 cell line screen, 48 h
MALME-3M melanoma = system: MALME-3M melanoma
RXF 393 renal = system: RXF 393 renal
SNB-75 CNS = system: SNB-75 CNS
SF-268 CNS = system: SF-268 CNS
SK-OV-3 ovarian = system: SK-OV-3 ovarian
SK-MEL-5 melanoma = system: SK-MEL-5 melanoma
PC-3 prostate = system: PC-3 prostate
OVCAR-3 ovarian = system: OVCAR-3 ovarian
UACC-62 melanoma = system: UACC-62 melanoma
NCI/ADR-RES ovarian = system: NCI/ADR-RES ovarian
HOP-62 NSCLC = system: HOP-62 NSCLC
HCT-116 colon = system: HCT-116 colon
HOP-92 NSCLC = system: HOP-92 NSCLC
NCI-H460 lung = system: NCI-H460 lung
BT-549 breast = system: BT-549 breast
SK-MEL-28 melanoma = system: SK-MEL-28 melanoma
MCF7 breast = system: MCF7 breast
RPMI-8226 leukemia = system: RPMI-8226 leukemia
DU-145 prostate = system: DU-145 prostate
U251 CNS = system: U251 CNS
UACC-257 melanoma = system: UACC-257 melanoma
EKVX NSCLC = system: EKVX NSCLC
CAKI-1 renal = system: CAKI-1 renal
MDA-MB-435 = system: MDA-MB-435
CCRF-CEM leukemia = system: CCRF-CEM leukemia
MOLT-4 leukemia = system: MOLT-4 leukemia
786-0 renal = system: 786-0 renal
OVCAR-8 ovarian = system: OVCAR-8 ovarian
OVCAR-4 ovarian = system: OVCAR-4 ovarian
A549 NSCLC = system: A549 NSCLC
M14 melanoma = system: M14 melanoma
A498 renal = system: A498 renal
HT29 colon = system: HT29 colon
OVCAR-5 ovarian = system: OVCAR-5 ovarian
SNB-19 CNS = system: SNB-19 CNS
IGROV1 ovarian = system: IGROV1 ovarian
HCT-15 colon = system: HCT-15 colon
HL-60(TB) leukemia = system: HL-60(TB) leukemia
LOX IMVI melanoma = system: LOX IMVI melanoma
HCC-2998 colon = system: HCC-2998 colon
UO-31 renal = system: UO-31 renal
MDA-MB-231 breast = system: MDA-MB-231 breast
SR leukemia = system: SR leukemia
SF-295 CNS = system: SF-295 CNS
SN12C renal = system: SN12C renal
SF-539 CNS = system: SF-539 CNS
NCI-H23 lung = system: NCI-H23 lung
T-47D breast = system: T-47D breast
K-562 leukemia = system: K-562 leukemia
COLO 205 colon = system: COLO 205 colon
KM12 colon = system: KM12 colon
HS 578T breast = system: HS 578T breast
NCI-H226 lung = system: NCI-H226 lung
TK-10 renal = system: TK-10 renal
SW-620 colon = system: SW-620 colon
ACHN renal = system: ACHN renal

Work on `O=C(Cc1ccc(Nc2ccnc(C(F)(F)F)c2)cc1)Nc1cc(Cl)ccc1O` yielded a GI50 (MALME-3M melanoma) of 3.83 µM, a TGI (MALME-3M melanoma) of 32.7 µM and a GI50 (RXF 393 renal) of 25 µM. The TGI (RXF 393 renal) was 52.4 µM, the GI50 (SNB-75 CNS) was 11.9 µM and the TGI (SNB-75 CNS) was 37.5 µM. For the same compound, the GI50 (SF-268 CNS) was 8.39 µM, the TGI (SF-268 CNS) was 31.5 µM and the GI50 (SK-OV-3 ovarian) was 15.8 µM. The TGI (SK-OV-3 ovarian) was 54.9 µM, the GI50 (SK-MEL-5 melanoma) was 3.86 µM and the TGI (SK-MEL-5 melanoma) was 14.7 µM. For the same compound, the GI50 (PC-3 prostate) was 2.58 µM, the TGI (PC-3 prostate) was 12.4 µM and the GI50 (OVCAR-3 ovarian) was 3.37 µM. The TGI (OVCAR-3 ovarian) was 13.6 µM, the GI50 (UACC-62 melanoma) was 2.75 µM and the TGI (UACC-62 melanoma) was 13.9 µM. It also gave a GI50 (NCI/ADR-RES ovarian) of 3.46 µM, a TGI (NCI/ADR-RES ovarian) of 24.5 µM and a GI50 (HOP-62 NSCLC) of 12.5 µM. The TGI (HOP-62 NSCLC) was 32.5 µM, the GI50 (HCT-116 colon) was 5.12 µM and the TGI (HCT-116 colon) was 26.5 µM. For the same compound, the GI50 (HOP-92 NSCLC) was 1.96 µM, the TGI (HOP-92 NSCLC) was 8.44 µM and the GI50 (NCI-H460 lung) was 6.92 µM. The TGI (NCI-H460 lung) was 27.9 µM, the GI50 (BT-549 breast) was 4.07 µM and the TGI (BT-549 breast) was 22.5 µM. It also gave a GI50 (SK-MEL-28 melanoma) of 6.06 µM, a TGI (SK-MEL-28 melanoma) of 18.7 µM and a GI50 (MCF7 breast) of 4.99 µM. For the same compound, the TGI (MCF7 breast) was 42.8 µM, the GI50 (RPMI-8226 leukemia) was 1.25 µM and the TGI (RPMI-8226 leukemia) was 4.1 µM. The GI50 (DU-145 prostate) was 9.27 µM, the TGI (DU-145 prostate) was 38.1 µM and the GI50 (U251 CNS) was 6.46 µM. For the same compound, the TGI (U251 CNS) was 23.6 µM, the GI50 (UACC-257 melanoma) was 11.8 µM and the TGI (UACC-257 melanoma) was 49.8 µM. For the same compound, the GI50 (EKVX NSCLC) was 3.12 µM, the TGI (EKVX NSCLC) was 16.9 µM and the GI50 (CAKI-1 renal) was 13.7 µM. It also gave a TGI (CAKI-1 renal) of 43.7 µM, a GI50 (MDA-MB-435) of 4.33 µM and a TGI (MDA-MB-435) of 17.5 µM. For the same compound, the GI50 (CCRF-CEM leukemia) was 1.68 µM, the TGI (CCRF-CEM leukemia) was 7.63 µM and the GI50 (MOLT-4 leukemia) was 1.73 µM. It also gave a TGI (MOLT-4 leukemia) of 5.39 µM, a GI50 (786-0 renal) of 21.3 µM and a TGI (786-0 renal) of 58.6 µM. The GI50 (OVCAR-8 ovarian) was 20.5 µM, the TGI (OVCAR-8 ovarian) was > 100 µM and the GI50 (OVCAR-4 ovarian) was 9.48 µM. For the same compound, the TGI (OVCAR-4 ovarian) was 84.2 µM, the GI50 (A549 NSCLC) was 15.3 µM and the TGI (A549 NSCLC) was > 100 µM. It also gave a GI50 (M14 melanoma) of 12.3 µM, a TGI (M14 melanoma) of 33.6 µM and a GI50 (A498 renal) of 3.03 µM. The TGI (A498 renal) was 10.6 µM, the GI50 (HT29 colon) was 21.4 µM and the TGI (HT29 colon) was 53.5 µM. For the same compound, the GI50 (OVCAR-5 ovarian) was 17.8 µM, the TGI (OVCAR-5 ovarian) was 52.1 µM and the GI50 (SNB-19 CNS) was 5.31 µM. It also gave a TGI (SNB-19 CNS) of 38 µM, a GI50 (IGROV1 ovarian) of 6.34 µM and a TGI (IGROV1 ovarian) of 30 µM. The GI50 (HCT-15 colon) was 5.66 µM, the TGI (HCT-15 colon) was 61 µM and the GI50 (HL-60(TB) leukemia) was 1.7 µM. For the same compound, the TGI (HL-60(TB) leukemia) was 5.35 µM, the GI50 (LOX IMVI melanoma) was 6.46 µM and the TGI (LOX IMVI melanoma) was 28.5 µM. The GI50 (HCC-2998 colon) was 13.6 µM, the TGI (HCC-2998 colon) was 28.4 µM and the GI50 (UO-31 renal) was 2.84 µM. The TGI (UO-31 renal) was 18.2 µM, the GI50 (MDA-MB-231 breast) was 4.92 µM and the TGI (MDA-MB-231 breast) was 24.2 µM. The GI50 (SR leukemia) was 2.45 µM, the TGI (SR leukemia) was 14.9 µM and the GI50 (SF-295 CNS) was 3.06 µM. The TGI (SF-295 CNS) was 11.9 µM, the GI50 (SN12C renal) was 9.09 µM and the TGI (SN12C renal) was 38.5 µM. The GI50 (SF-539 CNS) was 7.18 µM, the TGI (SF-539 CNS) was 22 µM and the GI50 (NCI-H23 lung) was 2.86 µM. It also gave a TGI (NCI-H23 lung) of 13.3 µM, a GI50 (T-47D breast) of 2.77 µM and a TGI (T-47D breast) of 11.3 µM. The GI50 (K-562 leukemia) was 2.96 µM, the TGI (K-562 leukemia) was 12 µM and the GI50 (COLO 205 colon) was 21.7 µM. It also gave a TGI (COLO 205 colon) of 55.4 µM, a GI50 (KM12 colon) of 4.36 µM and a TGI (KM12 colon) of 16.9 µM. For the same compound, the GI50 (HS 578T breast) was 3.7 µM, the TGI (HS 578T breast) was 26 µM and the GI50 (NCI-H226 lung) was 10.3 µM. For the same compound, the TGI (NCI-H226 lung) was 32.3 µM, the GI50 (TK-10 renal) was 17.7 µM and the TGI (TK-10 renal) was 56 µM. For the same compound, the GI50 (SW-620 colon) was 6.23 µM, the TGI (SW-620 colon) was 21.4 µM and the GI50 (ACHN renal) was 4.44 µM. It also gave a TGI (ACHN renal) of 44.2 µM.
